Test results taken from PubChem BioAssay AID248 (DTP/NCI, 2004).
Values joined by “and” are separate entries in the source; they are usually repeats but may differ in a detail not shown here. Identical values can stand only once. Toxic doses and inconclusive results are not listed. Rule as the data show it: active = T/C of 150% or more; inactive = T/C below 125%.

Tested on: L1210 leukemia ip in BDF1 mice, survival T/C
Test: NCI In Vivo Anticancer Drug Screen. Data for tumor model L1210 Leukemia (intraperitoneal) in B6D2F1 (BDF1) mice
Settings: endpoint: mean survival time, higher = longer survival
Outline: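 Ratio derived from survival: compound-dosed mice over vehicle-dosed mice, all bearing a transplantable tumor.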

[1] = dose: 50.0 mg/kg/injection, schedule: Q01DX009 (ip), vehicle: saline with Tween-80
[2] = dose: 400.0 mg/kg/injection, schedule: Q01DX009 (ip), vehicle: saline with Tween-80
[3] = dose: 50.0 mg/kg/injection, schedule: Q01DX001 (ip), vehicle: saline
[4] = dose: 50.0 mg/kg/injection, schedule: Q04DX003 (ip), vehicle: Klucel (hydroxypropylcellulose) (HPC)
[5] = dose: 100.0 mg/kg/injection, schedule: Q04DX003 (ip), vehicle: Klucel (hydroxypropylcellulose) (HPC)
[6] = dose: 50.0 mg/kg/injection, schedule: Q01DX001 (ip), vehicle: carboxymethylcellulose (CMC)
[7] = dose: 100.0 mg/kg/injection, schedule: Q01DX001 (ip), vehicle: carboxymethylcellulose (CMC)
[8] = dose: 200.0 mg/kg/injection, schedule: Q01DX001 (ip), vehicle: carboxymethylcellulose (CMC)
[9] = dose: 400.0 mg/kg/injection, schedule: Q01DX001 (ip), vehicle: carboxymethylcellulose (CMC)
[10] = dose: 100.0 mg/kg/injection, schedule: Q01DX009 (ip), vehicle: saline with Tween-80
[11] = dose: 100.0 mg/kg/injection, schedule: Q04DX003 (ip), vehicle: saline with Tween-80
[12] = dose: 200.0 mg/kg/injection, schedule: Q04DX003 (ip), vehicle: saline with Tween-80
[13] = dose: 100.0 mg/kg/injection, schedule: Q01DX009 (ip), vehicle: Klucel (hydroxypropylcellulose) (HPC)
[14] = dose: 200.0 mg/kg/injection, schedule: Q01DX009 (ip), vehicle: Klucel (hydroxypropylcellulose) (HPC)
[15] = dose: 200.0 mg/kg/injection, schedule: Q04DX003 (ip), vehicle: Klucel (hydroxypropylcellulose) (HPC)
[16] = dose: 400.0 mg/kg/injection, schedule: Q01DX009 (ip), vehicle: Klucel (hydroxypropylcellulose) (HPC)
[17] = dose: 400.0 mg/kg/injection, schedule: Q04DX003 (ip), vehicle: Klucel (hydroxypropylcellulose) (HPC)
[18] = dose: 100.0 mg/kg/injection, schedule: Q04DX003 (ip), vehicle: saline
[19] = dose: 400.0 mg/kg/injection, schedule: Q04DX003 (ip), vehicle: saline
[20] = dose: 200.0 mg/kg/injection, schedule: Q01DX009 (ip), vehicle: saline with Tween-80
[21] = dose: 400.0 mg/kg/injection, schedule: Q04DX003 (ip), vehicle: saline with Tween-80
[22] = dose: 100.0 mg/kg/injection, schedule: Q01DX001 (ip), vehicle: Klucel (hydroxypropylcellulose) (HPC)
[23] = dose: 200.0 mg/kg/injection, schedule: Q01DX001 (ip), vehicle: Klucel (hydroxypropylcellulose) (HPC)
[24] = dose: 400.0 mg/kg/injection, schedule: Q01DX001 (ip), vehicle: Klucel (hydroxypropylcellulose) (HPC)

Measured: T/C

O=S(=O)(Nc1ccccc1Cl)c1ccccc1
inactive: dose: 100.0 mg/kg/injection, schedule: Q01DX009 (ip), vehicle: gum acacia 100 % of control | dose: 100.0 mg/kg/injection, schedule: Q04DX003 (ip), vehicle: gum acacia 93 % of control | dose: 200.0 mg/kg/injection, schedule: Q01DX009 (ip), vehicle: gum acacia 98 % of control | dose: 200.0 mg/kg/injection, schedule: Q04DX003 (ip), vehicle: gum acacia 95 % of control | dose: 400.0 mg/kg/injection, schedule: Q01DX009 (ip), vehicle: gum acacia 94 % of control | dose: 400.0 mg/kg/injection, schedule: Q04DX003 (ip), vehicle: gum acacia 95 % of control

O=C(Nc1ccc(Cl)cc1)O/N=C/c1ccccn1
inactive: dose: 12.5 mg/kg/injection, schedule: Q01DX009 (ip), vehicle: saline with Tween-80 111 % of control | dose: 25.0 mg/kg/injection, schedule: Q01DX009 (ip), vehicle: saline with Tween-80 97 % of control | [1] 94 % of control | dose: 100.0 mg/kg/injection, schedule: Q01DX001 (ip), vehicle: saline with Tween-80 97 % of control | dose: 200.0 mg/kg/injection, schedule: Q01DX001 (ip), vehicle: saline with Tween-80 109 % of control | dose: 400.0 mg/kg/injection, schedule: Q01DX001 (ip), vehicle: saline with Tween-80 101 % of control | [2] 88 % of control

O=C1CCC(=O)N1c1ccc([I+]c2ccc(N3C(=O)CCC3=O)cc2)cc1
inactive: [3] 103 % of control | dose: 100.0 mg/kg/injection, schedule: Q01DX001 (ip), vehicle: saline 103 % of control | dose: 200.0 mg/kg/injection, schedule: Q01DX001 (ip), vehicle: saline 105 % of control | dose: 400.0 mg/kg/injection, schedule: Q01DX001 (ip), vehicle: saline 103 % of control

O=S1(=O)C=CC1
inactive: [3] 115 % of control

NC1CCC(CC23CC4CC(CC(C4)C2)C3)CC1 (centres undefined)
inactive: dose: 25.0 mg/kg/injection, schedule: Q04DX003 (ip), vehicle: Klucel (hydroxypropylcellulose) (HPC) 110 % of control | [4] 102 % of control | [5] 94 % of control and 101 % of control

OC(OCC(COC(O)C(Br)Br)(COC(O)C(Br)Br)COC(O)C(Br)Br)C(Br)Br (centres undefined)
inactive: [6] 101 % of control | [7] 95 % of control | [8] 92 % of control | [9] 95 % of control

CCOC(=O)N/N=C\c1cc(OC)c(OC)c(OC)c1
inactive: [1] 103 % of control | [10] 98 % of control | [11] 102 % of control | [12] 103 % of control

O=P(O)(O)c1ccccc1
inactive: [6] 96 % of control | [7] 107 % of control | [8] 98 % of control

C(=C\c1ccccc1)/Cc1ccccc1
inactive: [13] 97 % of control | [5] 101 % of control | [14] 95 % of control | [15] 111 % of control | [16] 103 % of control | [17] 92 % of control

Cc1ccc(C(=O)C=Nc2ccccc2C(=O)O)cc1
inactive: dose: 75.0 mg/kg/injection, schedule: Q04DX003 (ip), vehicle: Klucel (hydroxypropylcellulose) (HPC) 94 % of control | dose: 150.0 mg/kg/injection, schedule: Q04DX003 (ip), vehicle: Klucel (hydroxypropylcellulose) (HPC) 95 % of control | dose: 300.0 mg/kg/injection, schedule: Q04DX003 (ip), vehicle: Klucel (hydroxypropylcellulose) (HPC) 103 % of control

O=C(Nc1cccc(Cl)c1Cl)N(Cc1ccccc1)Cc1ccccc1
inactive: [13] 108 % of control | [14] 97 % of control | [16] 101 % of control

O=C(Nc1ccccc1F)Nc1cccc2ccc(O)cc12
inactive: dose: 100.0 mg/kg/injection, schedule: Q01DX009 (ip), vehicle: alcohol 95 % of control | dose: 200.0 mg/kg/injection, schedule: Q01DX009 (ip), vehicle: alcohol 98 % of control | dose: 400.0 mg/kg/injection, schedule: Q01DX009 (ip), vehicle: alcohol 93 % of control

CC(C)(c1cccs1)c1cscc1C(=O)O
inactive: [18] 108 % of control | dose: 200.0 mg/kg/injection, schedule: Q04DX003 (ip), vehicle: saline 113 % of control | [19] 105 % of control

S=C(NCc1ccccc1)Nc1ccccc1
inactive: [11] 96 % of control | [12] 94 % of control

CCN(CC)c1ccc(/C=C/C(=O)c2ccc(N(CC)CC)cc2)cc1
inactive: [13] 94 % of control | [14] 97 % of control | [16] 97 % of control

O=C1CCCc2cc3c(cc21)CCCC3
inactive: [13] 96 % of control | [5] 109 % of control | [14] 97 % of control | [15] 107 % of control | [17] 102 % of control

CCOC1OCN(C(C)(C)C)CC1(C)C (centres undefined)
inactive: dose: 100.0 mg/kg/injection, schedule: Q01DX009 (ip), vehicle: saline 118 % of control | dose: 200.0 mg/kg/injection, schedule: Q01DX009 (ip), vehicle: saline 116 % of control

OC1(c2ccccc2)c2ccccc2-c2ccccc21
inactive: [10] 101 % of control | [11] 98 % of control | [20] 106 % of control | [12] 93 % of control | [2] 106 % of control | [21] 95 % of control

CC(C)=CCc1c2c(c3occ(-c4ccc(O)c(O)c4)c(=O)c3c1O)C=CC(C)(C)O2
inactive: [4] 93 % of control | [5] 100 % of control | [15] 104 % of control

O=c1[nH]c(C(F)(F)F)c(CCc2ccccc2)c(=O)[nH]1
inactive: [22] 103 % of control | [23] 110 % of control | [24] 107 % of control

CCOC(=O)NP(NC(=O)NOC)NC(=O)OCC
inactive: [7] 101 % of control | [8] 93 % of control | [9] 101 % of control

CN1CCOc2ccccc2OCCOCCOc2ccccc2OCC1
inactive: [22] 100 % of control | [23] 96 % of control | [24] 102 % of control

Clc1nc(Cl)nc(-c2cccn2-c2ccccc2)n1
inactive: dose: 6.25 mg/kg/injection, schedule: Q01DX009 (ip), vehicle: saline with Tween-80 92 % of control | dose: 100.0 mg/kg/injection, schedule: Q04DX003 (ip), vehicle: acetone 101 % of control | [18] 101 % of control | dose: 200.0 mg/kg/injection, schedule: Q04DX003 (ip), vehicle: acetone 86 % of control | [19] 93 % of control

CCCN1CSC(=S)N(Cc2ccccc2)C1
inactive: [11] 95 % of control | [12] 93 % of control | [21] 90 % of control

CCOC(=O)NC(CCN(C)C)(c1cccc2ccccc12)C(C)C (centres undefined)
inactive: dose: 50.0 mg/kg/injection, schedule: Q04DX002 (ip), vehicle: Klucel (hydroxypropylcellulose) (HPC) 100 % of control | [13] 101 % of control | dose: 100.0 mg/kg/injection, schedule: Q04DX002 (ip), vehicle: Klucel (hydroxypropylcellulose) (HPC) 100 % of control

C/C=C(\C)C(=O)Nc1cccc(OC(=O)NC)c1
inactive: [10] 91 % of control | [20] 88 % of control | [2] 91 % of control

CCC[CH2][Sn]([CH2]CCC)([S]C#N)[S]C#N
inactive: dose: 3.12 mg/kg/injection, schedule: Q04DX002 (ip), vehicle: gum acacia 101 % of control | dose: 6.25 mg/kg/injection, schedule: Q04DX002 (ip), vehicle: gum acacia 96 % of control | dose: 12.5 mg/kg/injection, schedule: Q04DX002 (ip), vehicle: gum acacia 96 % of control

CC(=O)CCC(C(=O)c1ccccc1)c1ccccc1 (centres undefined)
inactive: dose: 222.0 mg/kg/injection, schedule: Q01DX Z (ip), vehicle: methylcellulose (MC) 101 % of control

COC1CCC(C2=NC3CCCCC3SC2)CC1 (centres undefined)
inactive: dose: 100.0 mg/kg/injection, schedule: Q04DX002 (sc), vehicle: olive oil, sesame oil, peanut oil 97 % of control | dose: 200.0 mg/kg/injection, schedule: Q04DX002 (sc), vehicle: olive oil, sesame oil, peanut oil 107 % of control | dose: 400.0 mg/kg/injection, schedule: Q04DX002 (sc), vehicle: olive oil, sesame oil, peanut oil 100 % of control

NC(N)=Nc1ccc(C(=O)Oc2ccc([N+](=O)[O-])cc2)cc1
inactive: [11] 108 % of control | [12] 94 % of control | [21] 89 % of control
